How the values were obtained:
[1] = system: cancer cells; settings: cited from earlier work
[2] = system: HCT116 cells; assay: In vivo liver metastasis after intra-splenic injection; design: species or system Mice; settings: subcutaneous injection twice a day for 3 weeks; FIG. 11
Procedure: Cells were maintained in RPMI-1640 medium (Welgene, Daegu, South Korea) supplemented with 10% fetal bovine serum (Welgene, Daegu, South Korea), 100 IU/ml penicillin, and 100 μg/ml streptomycin (Welgene, Daegu, South Korea) in a humidified atmosphere of 5% CO2, at 37° C. Calcium lactate (CaLa) was purchased from Sigma-Aldrich (St Louis, MO, USA).
Mice were anesthetized with a 2% isoflurane. 5×10^6 of HCT116 cells were suspended in the 100 μL phosphate buffered saline for one injection. A small left abdominal flank incision was made and the spleen was exteriorized for the intra-splenic injection. The prepared cells were injected into the spleen with a 30-gauge needle. To prevent tumor cell leakage and bleeding, a cotton swab was held over the site of injection for 1 min. The injected spleen was returned to the abdomen and the wound was sutured with 6-0 black silk.

[3] = system: cancer cells; settings: in vivo; cited from earlier work
[4] = system: cancer cell lines; settings: cited from earlier work
[5] = system: Human colorectal cancer cells; assay: In vivo efficacy of long-acting formulation, flank xenograft; design: species or system Balb/c nude mice; settings: 2 mg/kg subcutaneously B.I.D. for 21 days; FIG. 8
Procedure: Human colorectal cancer cells (5×10^6) were transplanted to the flank of Balb/c nude mice. […] Group 2: […] Group 3: […] Group 4: […] Tumor volume was measured 3 times per week until the end of experiment and was recorded by calculating minimum (M) and maximum (L) linear size of the tumors (L×M^2/2). Tumor weight was measured after autopsy on the final day of experiment. Tumor mass was sectioned to 5 μm and then stained with hematoxylin and eosin for histological analysis.

[6] = Stability of calcium lactate in water and acidic conditions; format: physicochemical
Source text: However, the drug is very unstable in water, especially under acidic conditions, and rapidly degraded. Therefore, it is difficult for this drug to show pharmaceutical efficacy with a general oral formulation because it is readily decomposed in the acidic environment of the stomach upon oral administration. Calcium lactate is also not absorbed when it reaches the large intestines because it is destroyed by enzymes present in the large intestine.

## CC(O)C(=O)[O-].CC(O)C(=O)[O-].[Ca+2] (stereo not shown) [calcium lactate]
[1]
  levels of growth, metastasis (migration) and tube formation of the cancer cells: decreased
  levels of lactate, LDH-B, pyruvate, PDH and α-KG in cells: increased
  levels of β-catenin, PARP, HIF-1α and VEGF in cells: decreased
[2]
  inflammatory response in developed tumor: induced
  liver metastasis as compared to the control: suppressed
[3]
  growth of cancer cells in animal models: suppressed
[4]; decreased amount of radiation
  anticancer effect in combination with conventional radiation: equivalent anticancer effect
[4]; decreased concentration of the anticancer drugs
  anticancer effect in combination with well-known anticancer drugs: higher anticancer effect
[5]
  tumor size versus control group: clearly smaller than the control group
[6]
  stability in water, especially under acidic conditions: very unstable

— US12059397B2 (METIMEDI PHARMACEUTICALS CO., LTD., priority 2016, dated 2024)
